Test results from BindingDB's records for doi:10.1021/jm00022a004 (H. Lundbeck, 1995).

Target: 5-hydroxytryptamine receptor 2A (Rattus norvegicus, UniProt P14842)
Assay: Binding affinity for 5-hydroxytryptamine 2A receptor, activity is expressed as IC50 values.

Chain of 5-hydroxytryptamine receptor 2A (P14842 whole entry): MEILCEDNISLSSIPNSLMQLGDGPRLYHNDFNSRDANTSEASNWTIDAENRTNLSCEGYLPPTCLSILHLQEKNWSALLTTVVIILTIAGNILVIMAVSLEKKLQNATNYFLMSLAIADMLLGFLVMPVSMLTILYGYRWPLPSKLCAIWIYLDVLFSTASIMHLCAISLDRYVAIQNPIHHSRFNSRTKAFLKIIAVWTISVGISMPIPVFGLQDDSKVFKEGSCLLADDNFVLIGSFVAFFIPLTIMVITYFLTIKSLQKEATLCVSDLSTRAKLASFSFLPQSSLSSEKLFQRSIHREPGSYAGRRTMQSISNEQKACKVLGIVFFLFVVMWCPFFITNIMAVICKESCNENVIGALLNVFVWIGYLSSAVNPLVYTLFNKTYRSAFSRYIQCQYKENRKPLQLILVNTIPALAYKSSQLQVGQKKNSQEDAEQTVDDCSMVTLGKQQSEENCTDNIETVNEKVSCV

**Q.** With CC1(C)CN(C2CC(c3ccc(F)cc3)c3ccc(Cl)cc32)CCN1 (stereo unspecified) [1-[6-Chloro-3-(4-fluoro-phenyl)-indan-1-yl]-3,3-dimethyl-piperazine] as the compound, how does the IC50 read?
**A.** 3.2 nM
